Experimental data from patent US20160207951A1, “ORGANOMETALLIC COMPOUNDS FOR USE AS ANTHELMINTICS” (UNIVERSITÄT ZÜRICH, priority 2013, published 2016).
Where two headings read alike, the source gives them in different places.

Assays:
[1] = tested on: H. contortus; assay: larval development assay, number of L3 H. contortus; set-up: species or system Haemonchus contortus
[2] = tested on: Haemonchus contortus; assay: activity in vitro against Haemonchus contortus (egg hatch and larval development)
[3] = tested on: Trichostrongylus colubriformis; assay: activity in vitro against Trichostrongylus colubriformis (egg hatch and larval development); set-up: dose or concentration left out as unconfirmed
[4] = tested on: C. elegans; assay: C. elegans movement inhibition assay
Method: Asynchronous N2 C. elegans worms (Bristol) were maintained on nematode growth medium (NGM) agar, seeded with a lawn on OP50 E. coli as a food-source, according to standard protocol (Maintenance of C. elegans; Stiernagle, T., Ed.; WormBook, 2006.). Worms were harvested from NGM plates by washing with M9 buffer (42 mmol/l Na2HPO4, 22 mmol/l KH2PO4, 86 mmol/l NaCl and 1 mmol/MgSO4), aspiration and collection in a 10 mL tube (Falcon). The average number of worms in 5 μL of this suspension was calculated by transferring 4×5 μL aliquots to a glass slide (Menzel Glaser), and worms were enumerated under a compound microscope (Olympus CH30). To adjust the suspension to contain 1 worm per μL, M9 buffer was either added or removed after pelleting worms at 600×g for 30 sec.
A volume of 70 μL of M9 buffer was added to each well in a 96-well plate, using a multichannel pipettor. A volume of 20 μL of worm suspension was added to each well using a single-channel pipettor, with a trimmed pipette tip (increased aperture to minimize damage to worms). The worm suspension was resuspended by flicking after every three wells to maintain consistency. The compounds were stored at 4° C., and diluted in dimethyl sulfoxide (DMSO) to achieve a 100 mmol/l concentration 1 hr prior to addition to assay. These stock solutions were diluted further in DMSO to create a series of 20 mmol/l, 2 mmol/l, 0.02 mmol/l and 0.002 mmol/l which were subsequently diluted 1:20 in M9 buffer to create 1 mmol/l, 0.1 mmol/l, 1 μmol/l and 0.1 μmol/l (all 5% (v/v) DMSO). […] A Zolvix (monepantel) dilution series was simultaneously created following the same dilution schema, and used as a positive control; 10 μL of 10% DMSO was added to achieve 1% DMSO vehicle control. 10 μL M9 was added to negative control wells (see FIG. 1). Plates were incubated at room temperature (22-24° C.) overnight at 20° C.
Immobile worms were counted as a percentage of total worms in each well using an Olympus SZ30 dissecting microscope. The immobile fraction was subtracted from the total, and this remainder was divided by the total to give a percentage of live worms per well.

[5] = tested on: human cervical cancer HeLa; assay: fluorometric cell viability assay (Resazurin) in HeLa; conditions: read-out: IC50 in HeLa
Method: (§1) Human cervical carcinoma cells (HeLa) were cultured in DMEM (Gibco) supplemented with 5% fetal calf serum (FCS, Gibco), 100 U/ml penicillin, 100 μg/ml streptomycin at 37° C. and 5% CO2. The normal human fetal lung fibroblast MRC-5 cell line was maintained in F-10 medium (Gibco) supplemented with 10% FCS (Gibco), 200 mmol/l L-Glutamine, 100 U/ml penicillin, and 100 μg/ml streptomycin at 37° C. and 5% CO2. To establish the anticancer potential of the compounds they were tested in one cell line, namely HeLa by a fluorometric cell viability assay using Resazurin (Promocell GmbH). […] 1 day before treatment, cells were plated in triplicates in 96-well plates at a density of 4×10^3 cells/well in 100 μl for HeLa and 7×10^3 cells/well for MRC-5 cells. Cells were treated with increasing concentrations of the compounds for 2 days. After 2 days, medium and drug were removed and 100 ml fresh medium containing Resazurin (0.2 mg/ml final concentration) were added. After 4 h of incubation at 37′C, the highly red fluorescent dye resorufin's fluorescence was quantified at 590 nm emission with 540 nm excitation wavelength in the SpectraMax M5 microplate Reader.

[6] = tested on: human lung fibroblasts MRC-5; assay: fluorometric cell viability assay (Resazurin) in MRC-5; conditions: read-out: IC50 in MRC-5
Method: as §1

[7] = tested on: Dirofilaria immitis; assay: activity in vitro against Dirofilaria immitis microfilariae (motility); set-up: dose or concentration left out as unconfirmed
[8] = HeLa cells, treated for 2 days, Resazurin
[9] = MRC-5 cells, treated for 2 days, Resazurin

Molecule	Number of L3 H. contortus/100 μM [1]	Activity against Haemontus Contortus at 10 [mg/mL] [2] [%]	Activity against Trychostrongylus colubriformis at 10 [mg/mL] [3] [%]	Mobility in C. elegans at 50 μM [4] [%]	IC50 [5, 8] [µM]	IC50 [6, 9] [µM]	Activity against Dirofilaria immitis at 10 [mg/mL] [7] [%]	IC50 ([5]; Homo sapiens, HeLa, 48 h) [µM]	IC50 ([6]; Homo sapiens, MRC5, 48 h) [µM]
N#Cc1ccc(C(F)(F)F)c(OCc2ccc[c-]2CNC(=O)c2ccc(SC(F)(F)F)cc2)c1.[Fe+2].c1cc[cH-]c1 (centres unmarked) [Compound 6, N-(2-((5-cyano-2-(trifluormethyl)phenoxy)methyl)ferrocenyl)-4-((trifluoromethyl)thio)benzamide]	>100	20	31	1	27.2	26.7			
Trifluoromethylthioferrocene [Compound 38]		0	0				31		
N#Cc1ccc(C(F)(F)F)c(OC[C]23[C]4(CNC(=O)c5ccc(SC(F)(F)F)cc5)[Co]2(=[C]=O)(=[C]=O)(=[C]=O)[Co]43(=[C]=O)(=[C]=O)=[C]=O)c1 (centres unmarked) [Compound 7, Dicobalthexacarbonyl-N-(4-(5-cyano-2-(trifluoromethyl)phenoxy)but-2-en-1-yl)-4-((trifluoromethyl)thio)benzamide]		63	25		26.8		100		
I[c-]1cccc1.N#CS[c-]1cccc1.[Ru+2] [Compound 40, 1,1′-Thiocyanatoiodruthenocene]			55				98		
CC(=O)OCc1ccc[c-]1C=O.[Ru+2].c1cc[cH-]c1 (centres unmarked) [Compound 36, 2-(Acetoxymethylruthenocene)carboxaldehyde]		52	54				11		
CC(C#N)(CO)NC(=O)[c-]1cccc1.[Fe+2].c1cc[cH-]c1 (centres unmarked) [Compound 10]	>100		57	4					
O=[C]=[Co]12(=[C]=O)(=[C]=O)[C]3(CO)[C]1(CNC(=O)c1ccc(SC(F)(F)F)cc1)[Co]32(=[C]=O)(=[C]=O)=[C]=O (centres unmarked) [Compound 5]		64	77				45		
C#CCNC(=O)c1ccc(SC(F)(F)F)cc1 [Compound 15]	>100	51	51	3			28		
O=C[c-]1cccc1CO.[Fe+2].c1cc[cH-]c1 (centres unmarked) [Compound 31, 2-(Hydroxymethylferrocene)carboxaldehyde]		40	37						
CC(=O)OCc1ccc[c-]1C=O.[Fe+2].c1cc[cH-]c1 (centres unmarked) [Compound 28, 2-(acetoxymethylferrocene)carboxaldehyde]		14	6				15		
O=[C]=[Co]12(=[C]=O)(=[C]=O)[CH]3[C]1(CNC(=O)c1ccc(SC(F)(F)F)cc1)[Co]32(=[C]=O)(=[C]=O)=[C]=O (centres unmarked) [Compound 4]	76.7		44	2			68		
Thiocyanatoruthenocene [Compound 39]		0	0				66		
O=C(NC[c-]1cccc1CO)c1ccc(SC(F)(F)F)cc1.[Fe+2].c1cc[cH-]c1 (centres unmarked) [Compound 3]	>100	24	13	4	20	44.6	0		
2-(hydroxymethyl)ferrocenylmethylamine [Compound 30]		24	11				0		
N#Cc1ccc(C(F)(F)F)c(OCC#CCNC(=O)c2ccc(SC(F)(F)F)cc2)c1 [Compound 13, N-(4-(5-cyano-2-(trifluoromethyl)phenoxy)but-2-yn-1-yl)-4-((trifluoromethyl)thio)benzamide]		52	49				19	30.6	96.4
2-(Hydroxymethyl)ruthenocenecarboxaldehyde oxime [Compound 32]		35	33				12		
N-ferrocenyl-4-((trifluoromethyl)thio)benzamide [Compound 2]	>100		80	0	17.6	42	69		
CN(C)Cc1ccc[c-]1C=O.[Fe+2].c1cc[cH-]c1 (centres unmarked) [Compound 27, 2-(N,N-dimethylaminomethylferrocene)carboxaldehyde]		39	44				18		
2-(hydroxymethyl)ferrocenecarboxaldehydeoxime [Compound 29]		47	49				12		
O=C(NCC#CCO)c1ccc(SC(F)(F)F)cc1 [Compound 14, N-(4-hydroxybut-2-yn-1-yl)-4-((trifluoromethyl)thio)benzamide]		32	51				46	> 100	
N-(2-cyano-1-hydroxypropan-2-yl)ruthenoceneamide [Compound 41]		0	0						
